Data as given in paper PMC12549899 (Nature Communications, 2025).

Target: T1, human OTOP1 (hOTOP1) (Homo sapiens, UniProt Q7RTM1)
T1 construct: expressed in transfected cells; host or cells: HEK-293 (CRL-1573, ATCC)
T1 sequence (Q7RTM1 1-612): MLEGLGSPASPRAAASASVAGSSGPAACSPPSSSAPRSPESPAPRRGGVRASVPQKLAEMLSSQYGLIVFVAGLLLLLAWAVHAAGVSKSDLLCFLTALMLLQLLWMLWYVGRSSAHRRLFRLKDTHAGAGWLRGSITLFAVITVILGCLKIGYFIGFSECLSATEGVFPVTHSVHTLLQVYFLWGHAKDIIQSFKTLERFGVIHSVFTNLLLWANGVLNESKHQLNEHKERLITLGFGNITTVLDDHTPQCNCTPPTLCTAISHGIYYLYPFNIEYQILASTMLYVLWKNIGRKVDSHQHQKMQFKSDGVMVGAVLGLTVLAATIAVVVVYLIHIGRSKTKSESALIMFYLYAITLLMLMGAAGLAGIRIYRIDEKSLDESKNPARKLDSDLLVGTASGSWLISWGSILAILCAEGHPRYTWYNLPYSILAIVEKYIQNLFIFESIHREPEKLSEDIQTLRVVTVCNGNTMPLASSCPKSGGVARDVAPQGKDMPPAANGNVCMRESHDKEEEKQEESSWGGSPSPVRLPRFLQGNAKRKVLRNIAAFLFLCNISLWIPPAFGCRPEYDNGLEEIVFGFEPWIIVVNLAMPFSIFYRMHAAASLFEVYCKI
Test: Whole-cell patch-clamp, inhibition of currents, hOTOP1 in HEK-293 cells
Type: cell-based
Details: HEK293, 300 µM (saturating concentration of C11)
Source text: The second series of compounds was again tested by whole-cell patch-clamp recording of DrOTOP1 expressed in HEK-293 cells. Of the 54 compounds tested, we identified 16 that inhibited DrOTOP1 acid-induced currents by over 25% (Fig. 2D and Supplementary Fig. 3E). […] The Hill coefficient of 1.52 indicated positive cooperativity and multiple binding sites, similar to C11. We next tested each of these compounds against mouse OTOP1 (mOTOP1) and human (Homo sapiens) OTOP1 (hOTOP1), which are among the closest related proteins in the mammalian proteome. […] For both compounds, we also determined whether there was any pH-dependence to their inhibitory effect by measuring dose-response curves over a range from pH 6.0, where sizable currents first appear, to pH 5.0. […]
Whole-cell patch-clamp recording was performed as previously described[6],[22],[25]. Recordings were made with an Axopatch 200B amplifier, digitized with a Digidata 1322a 16-bit data acquisition system, acquired with pClamp 8.2 and analyzed with Clampfit 10 (Molecular Devices). […]
All data are presented as mean ± SEM unless otherwise noted, and each data point represents an independent replicant. Inhibition of compounds was quantified as ((I2peak-I1)/(I2peak))*100, where I1 is the current immediately before wash-off and I2peak is the maximum recovered current (Supplementary Fig. 2). […]

Compound: O=C(/C(=N\O)c1ccccc1)c1ccccc1 [C11, benzil monoxime]
- inhibition at 300 µM: ~24%
